What was measured:
Test in all cases: relative viability (nuclei count vs DMSO), 5 days (fraction); higher = more cells survive
IPA-3 + AZD7762 = compound: C1=CC=C2C(=C1)C=CC(=C2SSC3=C(C=CC4=CC=CC=C43)O)O [IPA-3] + NC(=O)Nc1cc(-c2cccc(F)c2)sc1C(=O)N[C@H]1CCCNC1 [AZD7762] (partner 0.2 µM)
Procedure, shortened: (§1)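 Dosing by pin tool came one day after lung cancer cell lines were seeded in 1536-well plates, using either one drug or a fixed anchor-drug dose plus five library-drug doses (not always all listed) in √10 steps. After 5 days, nuclei were counted on 4× images. Relative viability is treated-well nuclei count divided by vehicle-well nuclei count, and values are medians of duplicate plates.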

IPA-3 + Vorinostat = compound: C1=CC=C2C(=C1)C=CC(=C2SSC3=C(C=CC4=CC=CC=C43)O)O [IPA-3] + O=C(CCCCCCC(=O)Nc1ccccc1)NO [Vorinostat] (partner 1 µM)
Procedure, shortened: as §1

Doramapimod + Bortezomib = compound: Cc1ccc(-n2nc(C(C)(C)C)cc2NC(=O)Nc2ccc(OCCN3CCOCC3)c3ccccc23)cc1 [Doramapimod] + CC(C)C[C@H](NC(=O)[C@H](Cc1ccccc1)NC(=O)c1cnccn1)B(O)O [Bortezomib] (partner 0.002 µM)
Procedure, shortened: as §1

Doramapimod + Alpelisib = compound: Cc1ccc(-n2nc(C(C)(C)C)cc2NC(=O)Nc2ccc(OCCN3CCOCC3)c3ccccc23)cc1 [Doramapimod] + Cc1nc(NC(=O)N2CCC[C@H]2C(N)=O)sc1-c1ccnc(C(C)(C)C(F)(F)F)c1 [Alpelisib] (partner 2 µM)
Procedure, shortened: as §1

Cell Line	relative viability (IPA-3 + AZD7762; first compound 0.2 µM)	relative viability (IPA-3 + AZD7762; first compound 0.6325 µM)	relative viability (IPA-3 + AZD7762; first compound 2 µM)	relative viability (IPA-3 + AZD7762; first compound 6.325 µM)	relative viability (IPA-3 + AZD7762; first compound 20 µM)	relative viability (IPA-3 + Vorinostat; first compound 0.2 µM)	relative viability (IPA-3 + Vorinostat; first compound 0.6325 µM)	relative viability (IPA-3 + Vorinostat; first compound 2 µM)	relative viability (IPA-3 + Vorinostat; first compound 6.325 µM)	relative viability (IPA-3 + Vorinostat; first compound 20 µM)	relative viability (Doramapimod + Bortezomib; first compound 0.02 µM)	relative viability (Doramapimod + Bortezomib; first compound 0.06325 µM)	relative viability (Doramapimod + Bortezomib; first compound 0.2 µM)	relative viability (Doramapimod + Bortezomib; first compound 0.6325 µM)	relative viability (Doramapimod + Bortezomib; first compound 2 µM)	relative viability (Doramapimod + Alpelisib; first compound 0.02 µM)	relative viability (Doramapimod + Alpelisib; first compound 0.06325 µM)	relative viability (Doramapimod + Alpelisib; first compound 0.2 µM)	relative viability (Doramapimod + Alpelisib; first compound 0.6325 µM)	relative viability (Doramapimod + Alpelisib; first compound 2 µM)
201T	0.641	0.584	0.724	0.699	0.828	1.04	0.931	1.01	0.926	1.13	1.16	1.16	1.09	1.29	1.16	1.04	1	0.992	1.07	0.982
A549	–	–	–	–	–	–	–	–	–	–	–	–	–	–	–	0.69	0.626	0.675	0.784	0.55
A-427	0.902	0.701	0.731	0.706	0.772	0.858	0.88	0.9	0.918	0.853	0.907	1.05	1	–	1.12	1.07	1.1	1.15	–	1.08
ABC-1	0.888	0.766	0.737	0.992	0.965	1.2	1.31	1.11	1.12	1.13	0.297	0.302	0.262	0.345	0.296	1.09	0.839	1.14	1.08	0.954
BEN	0.726	0.656	0.801	0.767	0.672	0.594	0.59	0.586	0.686	0.568	0.69	0.785	0.896	0.52	0.684	0.903	0.876	1.05	0.97	0.95
CAL-12T	0.634	0.662	0.661	0.629	0.686	1	0.58	0.773	0.762	1.13	1.01	1.11	1.16	1	0.818	1.1	1.05	1.21	1.41	1.09
COR-L23	–	–	–	–	–	0.561	0.471	0.416	0.232	0.307	1.12	0.914	0.962	0.997	0.969	0.762	0.719	0.755	0.734	0.697
COR-L 105	–	–	–	–	–	1.08	0.543	0.907	0.995	0.79	0.848	0.772	0.959	0.807	0.779	0.844	1.07	0.983	1	0.963
Calu-6	–	–	–	–	–	–	–	–	–	–	1.05	1.03	1.02	1.11	1.03	1.05	0.924	0.866	1.16	0.986
ChaGo-K-1	0.986	0.908	0.859	0.952	0.946	0.968	0.699	0.757	0.864	0.875	1.04	1.29	1.29	–	0.646	–	–	–	–	–
EBC-1	–	–	–	–	–	–	–	–	–	–	0.549	0.563	0.473	0.684	0.549	0.804	0.792	0.785	0.933	0.675
EKVX	0.858	0.708	0.72	0.654	0.744	0.801	0.693	0.83	0.793	0.763	1.04	0.997	1.08	0.967	1.11	0.826	0.755	0.773	1	0.833
EMC-BAC-2	1.15	1.17	1.12	1.08	1.16	0.436	0.556	0.504	0.428	0.491	1.12	1.12	1.03	1.15	0.961	0.75	0.736	0.727	0.761	0.695
IA-LM	–	–	–	–	–	1.06	0.922	0.925	0.891	1.15	0.842	0.757	0.795	0.92	0.656	0.658	0.728	0.693	0.73	0.669
LK-2	0.456	0.394	0.355	0.672	0.397	0.321	0.321	0.429	0.553	0.506	–	–	–	–	–	1.03	0.906	0.751	0.737	0.76
NCI-H358	0.618	0.566	0.5	0.508	0.48	0.785	0.618	0.783	0.619	0.803	–	–	–	–	–	0.885	0.653	0.768	0.918	0.799
NCI-H520	–	–	–	–	–	0.713	0.849	–	0.579	0.796	0.671	0.699	0.529	0.677	0.364	0.883	0.822	0.954	0.832	0.807
NCI-H522	0.974	0.809	0.759	1.02	0.91	0.879	0.897	0.854	0.894	1.06	–	–	–	–	–	–	–	–	–	–
NCI-H661	–	–	–	–	–	0.796	0.764	0.865	0.732	0.778	0.793	0.794	0.719	0.942	0.667	0.593	0.732	0.618	1.04	0.515

Cell Line	relative viability (IPA-3 + AZD7762; first compound 0.2 µM)	relative viability (IPA-3 + AZD7762; first compound 0.6325 µM)	relative viability (IPA-3 + AZD7762; first compound 2 µM)	relative viability (IPA-3 + AZD7762; first compound 6.325 µM)	relative viability (IPA-3 + AZD7762; first compound 20 µM)	relative viability (IPA-3 + Vorinostat; first compound 0.2 µM)	relative viability (IPA-3 + Vorinostat; first compound 0.6325 µM)	relative viability (IPA-3 + Vorinostat; first compound 2 µM)	relative viability (IPA-3 + Vorinostat; first compound 6.325 µM)	relative viability (IPA-3 + Vorinostat; first compound 20 µM)	relative viability (Doramapimod + Bortezomib; first compound 0.02 µM)	relative viability (Doramapimod + Bortezomib; first compound 0.06325 µM)	relative viability (Doramapimod + Bortezomib; first compound 0.2 µM)	relative viability (Doramapimod + Bortezomib; first compound 0.6325 µM)	relative viability (Doramapimod + Bortezomib; first compound 2 µM)	relative viability (Doramapimod + Alpelisib; first compound 0.02 µM)	relative viability (Doramapimod + Alpelisib; first compound 0.06325 µM)	relative viability (Doramapimod + Alpelisib; first compound 0.2 µM)	relative viability (Doramapimod + Alpelisib; first compound 0.6325 µM)	relative viability (Doramapimod + Alpelisib; first compound 2 µM)
NCI-H1299	–	–	–	–	–	–	–	–	–	–	1.03	1.09	1.04	1.06	1.05	1.12	1.13	1.1	1.1	1.01
NCI-H1395	0.377	0.413	0.423	0.373	0.345	0.679	0.754	0.588	0.635	0.747	–	–	–	–	–	1.07	1.08	0.93	1.14	0.938
NCI-H1563	–	–	–	–	–	–	–	–	–	–	0.871	0.88	0.993	1.17	0.873	0.859	0.912	0.893	1	0.802
NCI-H1648	0.673	0.863	0.751	0.621	0.825	0.876	0.484	0.589	0.34	0.399	–	–	–	–	–	–	–	–	–	–
NCI-H1650	–	–	–	–	–	1.02	0.47	0.531	0.555	0.729	0.232	0.23	0.194	0.191	0.189	–	–	–	–	–
NCI-H1703	0.119	0.121	0.126	0.145	0.133	–	–	–	–	–	0.305	0.208	0.226	0.365	0.218	0.363	0.336	0.323	0.393	0.278
NCI-H1792	0.97	0.519	–	0.604	0.572	–	–	–	–	–	0.946	0.952	0.948	1.05	0.831	0.606	0.658	0.578	0.713	0.521
NCI-H1793	0.56	0.526	0.424	0.641	0.527	1.12	0.714	0.64	0.712	0.687	–	–	–	–	–	0.788	0.595	0.786	0.643	0.595
NCI-H1944	0.766	0.492	0.536	0.718	0.541	0.674	0.492	0.479	0.574	0.527	–	–	–	–	–	0.756	0.829	0.765	0.829	0.71
NCI-H2009	–	–	–	–	–	0.858	0.685	0.89	0.723	0.642	1.08	1.06	1.18	0.246	0.962	1.23	1.22	1.22	1.13	1.13
NCI-H2023	–	–	–	–	–	0.866	0.681	0.789	0.699	0.839	1	0.945	0.978	0.44	0.97	0.498	0.54	0.503	0.617	0.503
NCI-H2170	1.1	0.826	0.78	0.795	0.919	0.87	0.997	1.04	0.768	0.901	–	–	–	–	–	0.802	0.823	0.769	0.915	0.741
NCI-H2228	–	–	–	–	–	0.953	0.809	0.633	0.552	0.737	0.952	0.966	1.11	1.06	0.758	0.911	0.518	0.619	0.753	0.649
NCI-H2342	0.429	0.563	0.502	0.681	0.542	0.837	1.03	0.851	0.91	0.89	–	–	–	–	–	–	–	–	–	–
SK-LU-1	–	–	–	–	–	0.902	0.779	0.643	0.75	0.852	1.41	1.37	1.51	–	1.15	0.901	0.925	1.14	1.19	0.866
SK-MES-1	–	–	–	–	–	1.27	1.03	1.09	0.925	1.04	–	–	–	–	–	0.87	0.765	0.766	0.869	0.675
SW 900	0.823	0.64	0.631	0.605	0.786	0.609	0.531	0.641	0.654	0.481	–	–	–	–	–	–	–	–	–	–
SW 1573	–	–	–	–	–	1.05	0.655	0.865	0.958	0.536	0.944	0.927	0.813	0.764	0.875	0.766	0.712	0.644	0.726	0.549

Source: the supplement of paper PMC10307832
